According to US20080063601A1, “Compositions and methods relating to polycystic kidney disease” (priority 2004, published 2008):

Key:
HeLa cells [1] = experiment: [3H]-triptolide competition binding in intact HeLa cells; settings: for displacement of / competition for [3H]-triptolide binding: 1 or 10 μM unlabeled competitor for 1 h before approx. 30 nM [3H]-triptolide for 1 h
Protocol: To gain insight into triptolide's mechanism of action Applicant sought to determine its specific binding activity utilizing a system employing [^3H]-triptolide. In addition to competition with 1 μM or 10 μM unlabeled triptolide, Applicant also measured the binding affinities of triptolide analogs (FIG. 3A). These analogs have been previously described and differ structurally from triptolide in the hydrolysis of the 12,13 epoxide (2), and formation of the ketone at the C-14 hydroxyl (3) (FIG. 3A). […] The effective interaction of these analogs with a presumed triptolide binding entity led us to their use in subsequent experiments addressing the mode of triptolide's biological functions.
Labeling studies were performed by the addition of approximately 30 nM [^3H]-triptolide directly into the culture media for one hour at 37° C. For cold competition studies, 1 μM triptolide was incubated with the cells for one hour before or after the addition of [^3H]-triptolide. Triptolide analog studies followed a similar protocol where concentrations used for competition were either 1 or 10 μM added before [^3H]-triptolide. Medium was removed and cells were washed 3× in cold PBS. Total cell lysates were prepared (150 mM NaCl, 50 mM Tris-HCl pH 7.4, 1 mM EDTA, 1% Triton X-100, and Complete™ protease inhibitors (Roche)) and protein was quantitated before measuring the [^3H]-triptolide binding activity via liquid scintillation.

HeLa cells [2] = experiment: HeLa cell viability by trypan blue dye exclusion; format: cell-based
Protocol: Since extracellular calcium concentration can influence triptolide binding Applicant sought to determine if the presence of calcium influences the rate of triptolide-mediated apoptosis. To first establish the growth rate of HeLa in media±calcium, cell counts were performed over a 72 hour time course. Although calcium-free media caused cells to detach more easily, the overall growth rates were similar where cell doubling occurred every 24 hours on average (FIG. 5B). For triptolide experiments, cells were initially equilibrated in medium±calcium for 16 hours before the addition of 100 nM triptolide. Cell death was assessed by trypan blue dye exclusion at 24, 48, and 72 hours post drug treatment. In the presence of calcium-containing medium, triptolide induced at least 50% cell death by 24 hours with this trend continuing through later time points (FIG. 5C).
Applicant's results have implicated reversible binding of triptolide to a potential binding protein or complex that can be regulated by calcium. To understand if triptolide function is further separable between cell death and NFκB inhibition, Applicant examined the effect of concentration on these two endpoints. HeLa cells were cultured in the presence of 0, 10, 25, 50, or 100 nM of triptolide and separately assessed for cell death or the ability to suppress NFκB transactivation promoted by TNF-α. Following 24-48 hours of culture, viable cells were recovered and counted. Following 24 hours, triptolide concentrations from 25-100 nM caused greater than 50% of the cells to undergo cell death as assessed by detachment, clumping and the failure to exclude trypan blue dye. […] This is consistent with previous studies showing that low doses of triptolide cause cell cycle arrest rather than apoptosis (Kiviharju, et al., 2002, Clin Cancer Res 8, 2666-2674).
Based upon Applicant's studies examining the concentration dependent effect of triptolide on the two measured biological endpoints, cell death and transcriptional repression, Applicant wanted to determine how modulating triptolide's structure may also discriminate between the two pathways. For cell viability assays, HeLa cells were incubated with 0, 0.1, 1, or 10 μM of each analog or triptolide for 24 hours and then counted using trypan blue dye exclusion. […] NFκB transcriptional inhibition was measured using the κB-luciferase assay as previously described following 5 hours of incubation with each analog (0-10 μM) and TNF-α addition.
HeLa cells were incubated in DMEM or SMEM (Gibco) media+10% FBS and maintained at 37° C. in 5% CO2 for all experiments. HeLa cell viability was assessed by trypan blue dye exclusion, as well as by morphological examination (non-viable cells were rounded and detached from culture plate).

NFκB transactivation = experiment: κB-luciferase reporter assay of TNF-α induced NFκB transactivation in HeLa cells; format: cell-based
Protocol: Having established that triptolide induced cell death is dependent upon free calcium concentration, Applicant next determined whether this was also a requirement for the inhibition of NFκB transcription. HeLa cells were transiently transfected with the κB-luciferase reporter construct for 8 hours before being washed and then cultured in the presence or absence of calcium containing medium for 16 hours. Triptolide (100 nM) was pre-incubated with cells for 1 hour before addition of 15 ng/ml of TNF-α for 4 hours.
As an additional experiment, transcriptional activity was also assessed by site-directed calcium buffering. HeLa cells were co-transfected with the κB-luciferase plasmid as well as one of the following constructs: GFP empty vector, NES-PV-GFP, or NLS-PV-GFP and proper GFP localization was confirmed. […]
NFκB transactivation was examined using the κB-luciferase reporter construct. […] Cells were assessed for NFκB driven luciferase expression after an additional five hours of incubation, at which time TNF-α had induced transcriptional activity by approximately 15-fold in control cells. […] The results thus far support a divergence of triptolide-mediated functions: the pathway regulating growth arrest/death is more sensitive to triptolide and calcium than the mechanism leading to transcriptional repression of NFκB.
A triple κB promoter-Luciferase reporter construct was a gift of Sankar Ghosh (Yale University). […] The transfection efficiency of HeLa was determined to be 80-90%, and all samples were normalized to protein concentration. Luciferase assays were performed using the Firefly luciferase kit as per manufacturer's protocol (Promega) and results obtained on the Wallac Victor2 1420 Multilabel Counter (Perkin Elmer).

Compound	displacement of / competition for [3H]-triptolide binding (HeLa cells [1])	cell viability versus untreated control (HeLa cells [2]; 0.1 μM, 24 hours)	effect on continued cell growth (HeLa cells [2]; 0.1 μM, out to 72 hours)	cell death (HeLa cells [2]; 1 μM, 24 hours)	effect on NFκB transcriptional activity (NFκB transactivation; 1 μM, 5 hours with TNF-α)	competitive ability for [3H]-triptolide binding compared with triptolide (HeLa cells [1]; 1 μM competitor)	effect on cells at low concentration (HeLa cells [2]; 25 nM)	profile of cell death compared with triptolide (HeLa cells [2]; 0.1-10 μM, 24 hours)	profile of transcriptional repression (NFκB) compared with triptolide (NFκB transactivation; 0.1-10 μM, 5 hours)
CC(C)C1(O)C(O)C2OC23C2(C)CCC4=C(COC4=O)C2CC2OC23C1O (stereo not shown) [analog (2), Triol-Triptolide]	efficiently competes	not different from the untreated control	overall growth suppressive effect	greater than 50%	no effect	–	–	–	–
CC(C)[C@]12O[C@H]1[C@@H]1O[C@@]13[C@@]1(C)CCC4=C(COC4=O)[C@@H]1C[C@@H]1O[C@@]13C2=O [analog (3), Triptonide]	near complete	–	–	–	–	higher competitive ability than triptolide itself	only a growth suppressive effect	mimicked triptolide with no significant difference	mimicked triptolide with no significant difference
